Results as given in patent US8906904B2, “Alkoxy pyrazoles as soluble guanylate cyclase activators” (Boehringer Ingelheim International GmbH, priority 2012, dated 2014).

Tests used:
[1] = biological target: T1, human soluble guanylate cyclase alpha 1 and beta 1 subunits (sGC) (Homo sapiens, UniProt Q02108+Q02153); assay: sGC cellular activator assay (cGMP, HTRF); format: cell-based; conditions: CHO cells stably expressing human sGC alpha 1/beta 1, preincubated with 40 microM ODQ; cGMP readout; assay run with and without 50% human serum, Table 2 does not say which
T1 construct: expressed in transfected cells; host or cells: Chinese hamster ovary (CHO) cells, stably transfected
T1 sequence (Q02108 1-690): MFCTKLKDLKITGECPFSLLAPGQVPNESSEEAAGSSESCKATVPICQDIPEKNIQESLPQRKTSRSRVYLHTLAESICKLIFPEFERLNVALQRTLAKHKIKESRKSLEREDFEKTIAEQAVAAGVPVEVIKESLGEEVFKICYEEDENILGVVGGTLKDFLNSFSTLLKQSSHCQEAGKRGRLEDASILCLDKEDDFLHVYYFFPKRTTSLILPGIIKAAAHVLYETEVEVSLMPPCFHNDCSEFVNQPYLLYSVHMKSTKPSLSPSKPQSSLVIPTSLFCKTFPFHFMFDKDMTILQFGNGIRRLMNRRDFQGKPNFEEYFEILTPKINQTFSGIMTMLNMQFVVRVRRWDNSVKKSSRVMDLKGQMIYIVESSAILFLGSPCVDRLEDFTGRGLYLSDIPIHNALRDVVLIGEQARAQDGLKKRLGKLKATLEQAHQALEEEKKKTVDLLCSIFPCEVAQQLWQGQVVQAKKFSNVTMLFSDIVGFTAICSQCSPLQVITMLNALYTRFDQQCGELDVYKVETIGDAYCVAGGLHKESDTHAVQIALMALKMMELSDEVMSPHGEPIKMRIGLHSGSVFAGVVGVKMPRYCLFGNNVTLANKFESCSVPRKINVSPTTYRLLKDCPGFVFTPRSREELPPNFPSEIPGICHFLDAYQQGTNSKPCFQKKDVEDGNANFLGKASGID
T1 sequence (Q02153 1-619): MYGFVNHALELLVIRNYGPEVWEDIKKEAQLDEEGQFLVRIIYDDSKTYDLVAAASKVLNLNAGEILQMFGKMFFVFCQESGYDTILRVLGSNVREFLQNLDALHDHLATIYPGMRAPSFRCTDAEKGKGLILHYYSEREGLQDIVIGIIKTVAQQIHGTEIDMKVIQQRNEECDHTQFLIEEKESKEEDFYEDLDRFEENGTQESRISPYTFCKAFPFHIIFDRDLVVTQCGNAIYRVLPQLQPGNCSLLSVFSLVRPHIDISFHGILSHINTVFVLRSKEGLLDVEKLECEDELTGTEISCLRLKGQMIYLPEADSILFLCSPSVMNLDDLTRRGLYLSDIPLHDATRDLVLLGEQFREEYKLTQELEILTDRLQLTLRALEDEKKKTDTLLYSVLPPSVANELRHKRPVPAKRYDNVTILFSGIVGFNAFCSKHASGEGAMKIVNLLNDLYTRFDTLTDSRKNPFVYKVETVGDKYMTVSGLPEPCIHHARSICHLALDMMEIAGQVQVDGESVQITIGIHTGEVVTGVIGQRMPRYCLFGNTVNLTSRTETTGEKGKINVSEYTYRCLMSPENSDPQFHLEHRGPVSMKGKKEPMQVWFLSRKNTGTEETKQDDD
Summary of the method: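 Heme-oxidized conditions: ODQ (40 microM, 1 h) pretreatment of CHO cells stably expressing human α1/β1 sGC, in buffer containing 0.1% BSA and IBMX.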

[2] = human liver microsome (HLM) metabolic stability assay; format: in vitro ADME; conditions: human liver microsomes; % hepatic blood flow calculated from t1/2
Summary of the method: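 Compounds at 1 uM incubated with human liver microsomes plus NADPH at 37° C., sampled at 0, 5, 15, 30 and 60 min into cold acetonitrile and quantified by LC/MS/MS. t½ from the slope of ln % remaining vs time; CLint, CLh and % Qh derived from it (n=1).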

| SMILES | EC50 [1] [µM] | HLM (% Qh) [2] [% Qh] |
| --- | --- | --- |
| COCC(C)N1CCc2cc(COc3c(C)cccc3-c3cccc(-n4ncc(C(=O)O)c4OC)n3)cc(C)c2C1 (stereo not drawn) [Compound 244] | 0.023 | <24 |
| CCOc1c(C(=O)O)cnn1-c1cccc(-c2cccc(C)c2OCc2cc(C)c3c(c2)CCN(CC2(C)COC2)C3)n1 [Compound 200] | 0.02 | 40 |
| COc1c(C(=O)O)cnn1-c1cccc(-c2cccc(C)c2OCc2ccc3c(c2F)CCN(C[C@H]2COCCO2)C3)n1 [Compound 234] | 0.013 | <24 |
| COc1c(C(=O)O)cnn1-c1cccc(-c2cccc(C)c2OCc2ccc3c(c2)CCN(CC2CCC2)C3)n1 [Compound 25] | 0.016 | 29 |
| CCOc1c(C(=O)O)cnn1-c1cccc(-c2cccc(C)c2OCc2ccc3c(c2C)CCN(C[C@@H]2CCCO2)CC3)n1 [Compound 235] | 0.02 | 29 |
| COc1c(C(=O)O)cnn1-c1cccc(-c2cccc(C)c2OCc2ccc3c(c2)C(C)(C)CN(CC2COCCO2)C3)n1 (stereo not drawn) [Compound 219] | 0.14 | 89 |
| CCOc1c(C(=O)O)cnn1-c1cccc(-c2cccc(C)c2OCc2cc(C)c3c(c2)CCN(CC2COCCO2)C3)n1 (stereo not drawn) [Compound 243] | 0.016 | <24 |
| COc1c(C(=O)O)cnn1-c1cccc(-c2cc(C)cc(C)c2OCc2ccc3c(c2)CCN(C2CCOCC2)C3)n1 [Compound 181] | 0.062 | <24 |
| COc1c(C(=O)O)cnn1-c1cccc(-c2cccc(C)c2OCc2ccc3c(c2C)CCN(CC2(C)COC2)C3)n1 [Compound 28] | 0.013 | <24 |
| COc1c(C(=O)O)cnn1-c1cccc(-c2cccc(C)c2OCc2cc(F)c3c(c2)CCN([C@H]2CCOC2)C3)n1 [Compound 254] | 0.025 | <24 |
| COc1c(C(=O)O)cnn1-c1cccc(-c2cccc(C)c2OCc2ccc3c(c2)C(C)(C)CN(C2CCCOC2)C3)n1 (stereo not drawn) [Compound 218] | 0.062 | 89 |
| COCC(C)N1CCc2cc(COc3c(C)cccc3-c3cccc(-n4ncc(C(=O)O)c4OC)n3)ccc2C1 (stereo not drawn) [Compound 23] | 0.052 | <24 |
| COc1c(C(=O)O)cnn1-c1cccc(-c2cccc(C)c2OCc2cc(C)c3c(c2)CCN(C2COC2)C3)n1 [Compound 186] | 0.016 | <24 |
| COc1ccc(OCc2ccc3c(c2C)CCN(C2CCOCC2)C3)c(-c2cccc(-n3ncc(C(=O)O)c3OC)n2)c1 [Compound 182] | 0.37 | <24 |
| CCOc1c(C(=O)O)cnn1-c1cccc(-c2cccc(C)c2OCc2ccc3c(c2)CCN(C2COC2)CC3)n1 [Compound 213] | 0.039 | <24 |
| CCOc1c(C(=O)O)cnn1-c1cccc(-c2cccc(C)c2OCc2ccc3c(c2C)CCN(C[C@@H]2COCCO2)CC3)n1 [Compound 211] | 0.03 | <24 |
| COc1c(C(=O)O)cnn1-c1cccc(-c2cccc(C)c2OCc2cc(C#N)c3c(c2)CCN(C2CCOCC2)C3)n1 [Compound 250] | 0.044 | <24 |
| COc1c(C(=O)O)cnn1-c1cccc(-c2cccc(C)c2OCc2ccc3c(c2Cl)CCN(C2CCC2)C3)n1 [Compound 20] | 0.024 | 38 |
| CCOc1c(C(=O)O)cnn1-c1cccc(-c2cccc(C)c2OCc2ccc3c(c2C)CCN(C2CCOCC2)C3=O)n1 [Compound 194] | 0.087 | <24 |
| CCOc1c(C(=O)O)cnn1-c1cccc(-c2cccc(C)c2OCc2ccc3c(c2OC)CCN(C2CCOCC2)C3)n1 [Compound 220] | 0.15 | <24 |
| COc1c(C(=O)O)cnn1-c1cccc(-c2ccccc2OCc2ccc3c(c2)CCN(C2CCOCC2)C3)n1 [Compound 209] | 0.2 | <24 |
| CCOc1c(C(=O)O)cnn1-c1cccc(-c2cccc(C)c2OCc2ccc3c(c2C)CCN(CC2(C)COC2)CC3)n1 [Compound 190] | 0.023 | 43 |
| CCOc1c(C(=O)O)cnn1-c1cccc(-c2cccc(C)c2OCc2ccc3c(c2C)CCN(C[C@H]2COCCO2)CC3)n1 [Compound 212] | 0.036 | <24 |
| CCOc1c(C(=O)O)cnn1-c1cccc(-c2cccc(C)c2OCc2ccc3c(c2C)CCN(C[C@@H]2CCCCO2)CC3)n1 [Compound 215] | 0.037 | <24 |
| COc1c(C(=O)O)cnn1-c1cccc(-c2cccc(C)c2OCc2ccc3c(c2C)CCN(C2COC2)C3)n1 [Compound 16] | 0.023 | <24 |

Further compounds by falling EC50 [1], results first:

| EC50 [1] [µM] | HLM (% Qh) [2] [% Qh] | SMILES |
| --- | --- | --- |
| 0.013 | 25 | CCOc1c(C(=O)O)cnn1-c1cccc(-c2cccc(C)c2OCc2ccc3c(c2C)CCN([C@@H]2CCOC2)CC3)n1 [Compound 227] |
| 0.011 | 26 | CCOc1c(C(=O)O)cnn1-c1cccc(-c2cccc(C)c2OCc2ccc3c(c2C)CCN(C[C@H]2CCCO2)CC3)n1 [Compound 233] |
| 0.011 | <24 | COc1c(C(=O)O)cnn1-c1cccc(-c2cccc(C)c2OCc2cc(C)c3c(c2)CCN(C2CCOC2)C3)n1 (stereo not drawn) [Compound 242] |
| 0.01 | <24 | CCOc1c(C(=O)O)cnn1-c1cccc(-c2cccc(C)c2OCc2ccc3c(c2C)CCN([C@H]2CCOC2)CC3)n1 [Compound 225] |
| 0.01 | <24 | COc1c(C(=O)O)cnn1-c1cccc(-c2cccc(C)c2OCc2ccc3c(c2F)CCN([C@@H]2CCOC2)C3)n1 [Compound 252] |
| 0.0095 | <24 | CCOc1c(C(=O)O)cnn1-c1cccc(-c2cccc(C)c2OCc2ccc3c(c2C)CCN(C[C@H]2CCCCO2)C3)n1 [Compound 232] |
| 0.0092 | <24 | COc1c(C(=O)O)cnn1-c1cccc(-c2cccc(C)c2OCc2ccc3c(c2C)CCN([C@@H]2CCOC2)CC3)n1 [Compound 207] |
| 0.009 | <24 | COc1c(C(=O)O)cnn1-c1cccc(-c2cccc(C)c2OCc2ccc3c(c2C)CCN(C[C@H]2CCCCO2)C3)n1 [Compound 199] |
| 0.0086 | <24 | COc1c(C(=O)O)cnn1-c1cccc(-c2cccc(C)c2OCc2ccc3c(c2)CCN(C[C@@H]2CCOC2)C3)n1 [Compound 188] |
| 0.0085 | <24 | COc1c(C(=O)O)cnn1-c1cccc(-c2cccc(C)c2OCc2ccc3c(c2C)CCN(C[C@@H]2CCCO2)CC3)n1 [Compound 223] |
| 0.0046 | <24 | COc1c(C(=O)O)cnn1-c1cccc(-c2cccc(C)c2OCc2ccc3c(c2F)CCN(C[C@@H]2COCCO2)C3)n1 [Compound 231] |
| 0.0044 | <24 | COc1c(C(=O)O)cnn1-c1cccc(-c2cccc(C)c2OCc2ccc3c(c2C)CCN(C[C@H]2COCCO2)CC3)n1 [Compound 203] |
| 0.0039 | 34 | COc1c(C(=O)O)cnn1-c1cccc(-c2cccc(C)c2OCc2cc(F)c3c(c2)CCN(C[C@H]2CCCCO2)C3)n1 [Compound 229] |
| 0.0035 | 28 | COc1c(C(=O)O)cnn1-c1cccc(-c2cccc(C)c2OCc2ccc3c(c2C)CCN(CC2CC(F)(F)C2)C3)n1 [Compound 29] |
